Test results from ChEMBL document CHEMBL1201862, “PubChem BioAssay data set” (2004).
Calls of active or inactive are those of the source.

What was measured:
[1] = molecular target: Scavenger receptor class B member 1 (Mus musculus, UniProt Q61009); assay: inhibitors of SR-BI mediated HDL lipid uptake, dose response, ldlA[mSR-BI] cells, fluorescence, cherry pick (AID 493194); assay type: functional, cell-based;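 further: cellular uptake of fluorescent DiI-labeled HDL measured as cell fluorescence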
[2] = molecular target: Neurotensin receptor type 1 (Homo sapiens, UniProt P30989); assay type: functional;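 further: Image-based confirmatory dose-response assay measuring agonist activity at NTR1; NTR1-expressing U2OS osteosarcoma cells imaged for beta-arrestin GFP spot formation; agonist potency where compounds increase beta-arrestin recruitment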
INS1 = assay: beta cell apoptosis inhibitors, cytokine rescue, dose response, luminescence, retest (AID 449756); assay type: functional, cell-based; details: Rattus norvegicus;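 further: cell death triggered by IL-1 beta plus TNF-alpha plus IFN-gamma mixture; protective hits raise ATP signal compared with cytokine alone wells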
[3] = molecular target: T1, Delta-type opioid receptor (Homo sapiens, UniProt P41143); assay: HTS Image-Based Screen for Antagonists of the DOR Receptor. [Related pubchem assays (depositor defined):AID1777, AID1785, AID1786, AID2133]; assay type: functional
Mu-type opioid receptor = Mu-type opioid receptor (Homo sapiens, UniProt P35372); assay: HTS Image-Based Screen for Agonists of the MOR Receptor. [Related pubchem assays (depositor defined):AID1777, AID1785, AID1786, AID2133]; assay type: functional;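 further: imaging of beta-arrestin GFP recruitment into spots after receptor activation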
[4] = molecular target: T1, Delta-type opioid receptor; assay: HTS Image-Based Screen for Agonists of the DOR Receptor. [Related pubchem assays (depositor defined):AID1777, AID1786, AID2133]; assay type: functional
[5] = molecular target: T2, Kappa-type opioid receptor (Homo sapiens, UniProt P41145); assay type: functional
[6] = molecular target: T2, Kappa-type opioid receptor; assay type: functional; remark: listed apart in the source
Wee1-like protein kinase = Wee1-like protein kinase (Homo sapiens, UniProt P30291); assay: G2/M cell cycle arrest in HeLa, late-stage follow-up, mechanism study for Wee1 degradation inhibitor project, FACS, panel member Wee1 Degradation (AID 2088)
[7] = molecular target: G2/mitotic-specific cyclin-B1 (Homo sapiens, UniProt P14635); assay: G2/M cell cycle arrest in HeLa, late-stage follow-up, mechanism study for Wee1 degradation inhibitor project, FACS, panel member Cyclin B Degradation (AID 2088)
[8] = inhibitors of firefly luciferase expression or activity, dose response, H4 neuroglioma cells, luminescence (AID 1990); assay type: functional, cell-based
BJ [9] = assay: cytotoxicity toward BJ-TERT fibroblasts, dose response, cell-based, RAS-independent, luminescence (AID 1933); assay type: functional; details: Homo sapiens
[10] = Luminescence Cell-Based Dose Response HTS to Identify Inhibitors of 5'UTR Stem-Loop Driven Prion Protein mRNA Translation in H4 Neuroglioblastoma Cells. [Related pubchem assays: 1827 (Project Summary), 1813 (Primary HTS)]; assay type: functional
[11] = inhibitors of SNCA 5'UTR-driven reporter translation, confirmation, H4 neuroglioma cells, luminescence (AID 1988); assay type: functional, cell-based
BJ [12] = assay: cells; assay type: functional, cell-based; details: Homo sapiens
J774.A1 = assay: Confirmation of image-based Screening Assay for Inhibitors of Phagocytosis. [Related pubchem assays (depositor defined):AID1029, AID1643]; assay type: functional, cell-based; details: Mus musculus
BJ [13] = assay: cytotoxicity toward BJ-TERT-LT-ST fibroblasts, dose response, cell-based, RAS-independent, luminescence (AID 1935); assay type: functional; details: Homo sapiens;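 further: BJ fibroblasts immortalized with TERT plus LT and ST oncogenes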
[14] = cytotoxicity toward DRD oncogenic fibroblasts, dose response, cell-based, non-viral oncogenic, luminescence (AID 1934); assay type: functional; details: Homo sapiens
[15] = cytotoxicity in HEK-293T cells, dose response, cytotoxicity control for TCR NF-kB inhibitor project, luminescence, T-cell screen hits (AID 489026); assay type: functional, cell-based;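 further: cells exposed to compound about 14 hours before the viability readout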
BJ [16] = assay: cytotoxicity toward Ras-transformed BJeLR fibroblasts, dose response, cell-based, alamar blue fluorescence, cherrypicked samples (AID 2631); assay type: functional; details: Homo sapiens;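 further: confirmatory dose-response assay in RAS-dependent BJ fibroblasts engineered with TERT, LT and ST, with cytotoxicity read by fluorescence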

T1 sequence (P41143 whole entry): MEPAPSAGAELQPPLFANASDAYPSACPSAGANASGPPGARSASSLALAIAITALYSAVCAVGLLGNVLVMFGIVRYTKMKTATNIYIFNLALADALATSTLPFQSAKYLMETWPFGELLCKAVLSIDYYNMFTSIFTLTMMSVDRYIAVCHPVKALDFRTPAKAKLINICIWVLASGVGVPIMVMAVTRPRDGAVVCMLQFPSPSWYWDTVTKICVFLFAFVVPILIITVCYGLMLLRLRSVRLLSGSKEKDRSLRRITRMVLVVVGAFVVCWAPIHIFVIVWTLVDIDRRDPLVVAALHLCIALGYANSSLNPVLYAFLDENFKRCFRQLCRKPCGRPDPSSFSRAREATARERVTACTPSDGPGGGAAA
T2 sequence (P41145 whole entry): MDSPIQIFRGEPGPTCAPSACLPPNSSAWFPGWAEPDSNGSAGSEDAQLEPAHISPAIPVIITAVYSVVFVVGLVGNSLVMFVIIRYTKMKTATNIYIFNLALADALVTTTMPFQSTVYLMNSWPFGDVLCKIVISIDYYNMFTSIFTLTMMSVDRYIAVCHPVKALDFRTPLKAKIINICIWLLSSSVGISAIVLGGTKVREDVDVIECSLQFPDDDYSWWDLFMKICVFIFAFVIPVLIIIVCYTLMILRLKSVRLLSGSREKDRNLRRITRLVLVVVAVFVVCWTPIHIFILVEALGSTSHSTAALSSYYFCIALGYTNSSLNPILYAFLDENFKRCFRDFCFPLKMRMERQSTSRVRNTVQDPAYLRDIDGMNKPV
Chain of Neurotensin receptor type 1 (P30989 whole entry): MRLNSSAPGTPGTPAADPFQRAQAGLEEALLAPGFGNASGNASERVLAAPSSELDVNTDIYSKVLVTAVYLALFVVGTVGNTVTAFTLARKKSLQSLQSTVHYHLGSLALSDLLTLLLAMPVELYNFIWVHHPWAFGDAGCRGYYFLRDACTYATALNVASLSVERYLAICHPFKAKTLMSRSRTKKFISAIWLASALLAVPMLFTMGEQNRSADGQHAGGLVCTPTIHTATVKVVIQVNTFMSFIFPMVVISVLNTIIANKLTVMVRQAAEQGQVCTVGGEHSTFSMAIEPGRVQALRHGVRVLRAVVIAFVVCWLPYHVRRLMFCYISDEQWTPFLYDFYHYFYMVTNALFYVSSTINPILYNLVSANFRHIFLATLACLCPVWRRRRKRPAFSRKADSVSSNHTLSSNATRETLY
Chain of Wee1-like protein kinase (P30291 whole entry): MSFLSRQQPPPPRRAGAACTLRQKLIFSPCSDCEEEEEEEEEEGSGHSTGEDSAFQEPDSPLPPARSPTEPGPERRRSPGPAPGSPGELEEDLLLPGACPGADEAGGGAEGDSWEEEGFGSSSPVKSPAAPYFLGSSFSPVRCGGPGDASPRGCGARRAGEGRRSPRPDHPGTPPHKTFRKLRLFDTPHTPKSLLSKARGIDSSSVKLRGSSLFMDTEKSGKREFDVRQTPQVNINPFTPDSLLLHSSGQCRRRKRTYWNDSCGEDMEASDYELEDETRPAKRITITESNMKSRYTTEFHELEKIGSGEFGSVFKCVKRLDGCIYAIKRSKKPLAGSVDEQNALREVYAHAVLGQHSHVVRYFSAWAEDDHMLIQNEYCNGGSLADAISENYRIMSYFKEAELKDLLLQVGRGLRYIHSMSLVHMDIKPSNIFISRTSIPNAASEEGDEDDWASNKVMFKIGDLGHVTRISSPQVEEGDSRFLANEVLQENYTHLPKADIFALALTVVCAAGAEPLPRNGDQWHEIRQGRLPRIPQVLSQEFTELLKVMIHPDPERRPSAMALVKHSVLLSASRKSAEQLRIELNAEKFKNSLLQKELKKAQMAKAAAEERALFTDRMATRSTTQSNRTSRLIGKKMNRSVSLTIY
Chain of G2/mitotic-specific cyclin-B1 (P14635 whole entry): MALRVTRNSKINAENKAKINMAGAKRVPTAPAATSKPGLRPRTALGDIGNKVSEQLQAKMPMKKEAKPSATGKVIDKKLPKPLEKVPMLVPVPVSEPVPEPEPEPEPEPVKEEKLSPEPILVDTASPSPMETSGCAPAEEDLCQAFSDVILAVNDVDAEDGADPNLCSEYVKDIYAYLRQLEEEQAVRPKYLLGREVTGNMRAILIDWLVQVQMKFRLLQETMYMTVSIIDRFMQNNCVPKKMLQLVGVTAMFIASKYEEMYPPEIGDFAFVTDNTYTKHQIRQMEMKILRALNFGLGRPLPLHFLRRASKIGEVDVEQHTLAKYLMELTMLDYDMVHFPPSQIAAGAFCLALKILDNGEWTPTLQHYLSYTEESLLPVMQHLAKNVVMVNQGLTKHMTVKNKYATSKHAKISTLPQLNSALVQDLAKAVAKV
Chain of Scavenger receptor class B member 1 (Q61009 whole entry): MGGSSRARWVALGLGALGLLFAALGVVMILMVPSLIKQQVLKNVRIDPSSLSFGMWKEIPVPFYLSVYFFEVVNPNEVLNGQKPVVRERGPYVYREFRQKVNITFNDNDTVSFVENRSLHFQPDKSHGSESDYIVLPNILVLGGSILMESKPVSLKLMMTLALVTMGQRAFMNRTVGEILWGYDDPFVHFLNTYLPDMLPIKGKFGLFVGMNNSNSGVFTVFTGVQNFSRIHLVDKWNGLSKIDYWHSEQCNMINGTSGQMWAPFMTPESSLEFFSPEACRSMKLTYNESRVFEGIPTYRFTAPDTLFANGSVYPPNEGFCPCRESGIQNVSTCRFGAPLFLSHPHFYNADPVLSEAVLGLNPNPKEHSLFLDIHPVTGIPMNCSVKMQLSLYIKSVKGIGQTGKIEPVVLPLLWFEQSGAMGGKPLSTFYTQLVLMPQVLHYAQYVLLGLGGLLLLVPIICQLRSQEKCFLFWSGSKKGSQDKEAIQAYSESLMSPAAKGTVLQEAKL
Chain of Mu-type opioid receptor (P35372 whole entry): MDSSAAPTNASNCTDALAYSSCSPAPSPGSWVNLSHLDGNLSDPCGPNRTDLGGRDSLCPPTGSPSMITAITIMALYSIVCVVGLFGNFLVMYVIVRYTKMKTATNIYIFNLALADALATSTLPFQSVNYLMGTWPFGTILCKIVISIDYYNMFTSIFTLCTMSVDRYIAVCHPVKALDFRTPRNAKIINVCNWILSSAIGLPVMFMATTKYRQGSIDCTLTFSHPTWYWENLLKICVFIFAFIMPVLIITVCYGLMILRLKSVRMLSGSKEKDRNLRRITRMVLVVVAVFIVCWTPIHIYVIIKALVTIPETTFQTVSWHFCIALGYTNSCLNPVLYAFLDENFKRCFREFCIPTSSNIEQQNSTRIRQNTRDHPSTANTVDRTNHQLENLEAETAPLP

Cc1ccccc1NC(=O)NCC1CCN(c2ccc(S(=O)(=O)N3CCOCC3)cc2)CC1
AC50 [1]: 1.04 µM (active)

c1ccc(C(c2ccccc2)N2CCN(c3nc4ccccc4n4cnnc34)CC2)cc1
EC50 [2]: 26.4 µM (inactive) | AC50 (INS1): 4.56 µM (active)

Cc1ccc(Cl)cc1NC(=S)N(Cc1cccs1)C1CCCC1
IC50 [3]: > 32 µM (inactive) | EC50 (Mu-type opioid receptor): > 32 µM (inactive) | EC50 [4]: > 32 µM (inactive) | EC50 [5]: 14 µM | EC50 [6]: 13.1 µM

Cc1cc(O)nc(-n2nc(C)cc2NC(=O)c2cccc(Br)c2)n1
EC50 (Wee1-like protein kinase): > 49.7 µM (inactive) | EC50 [7]: > 49.7 µM (inactive)

COC(=O)c1[nH]c2c(c1C)C(=O)CC(c1cccs1)C2 (stereo not given)
EC50 [8]: 4.98 µM (active) | EC50 (BJ [9]): 1.02 µM (active) | EC50 [10]: 7.34 µM (active) | EC50 [11]: 0.469 µM (active) | EC50 (BJ [12]): 3.72 µM (inconclusive) | IC50 (J774.A1): 0.116 µM (active) | EC50 (BJ [13]): 0.873 µM (inconclusive) | EC50 [14]: 0.912 µM (active) | IC50 [15]: > 80 µM (inactive) | EC50 (BJ [16]): 0.299 µM (active)
